Test system: B. Pseudomonas aeruginosa
Experiment: Induced peritoneal sepsis, survival
Type: in vivo
Conditions: for Survival (animals alive): bacteria + Gentamycin 1.0 mg/ml i.p.
Protocol: Mice (C3H) were induced with B. Pseudomonas aeruginosa to have peritoneal sepsis, with resultant infection injury to the lung. Fox-Dewhurst, R., et al., Am. J Respir. Crit. Care Med., 155:2030-2040 (1997). Groups of animals (n=4 per group) were treated with doses of bacteria (108-1010 cfu/ml) in the peritoneum. Injection bacteria was prepared in saline at 10×10^7 cfu/ml. 0.3 ml of bacterial solution was injected into the peritoneal cavity. After three minutes, 0.3 ml of saline or 0.5 ml of electrolyzed saline solution was injected intraperitoneally. A group of animals was treated with Gentamycin as a positive control to compare the effectiveness of 25%, 50%, and 100% electrolyzed saline solutions. This group of animals was treated at the time of bacterial inoculation with Gentamycin at a concentration of 1.0 mg/ml intraperitoneally.
Six study groups of mice were studied: saline control, Gentamycin positive control, bacteria plus 25% electrolyzed saline solution, bacteria plus 50% electrolyzed saline solution, bacteria plus 100% electrolyzed saline solution, and bacteria plus saline.

Gentamycin
Survival (animals alive) (24 hrs, n=4): 4
clinical appearance of animals (48 hours, Gentamicin 1.0 mg/ml i.p.): still normal with no sign of sickness
Survival (animals alive) (48 hrs, n=4): 4
survival rate (72 hours, Gentamicin 1.0 mg/ml i.p.): 50%
animals died (72 hours, Gentamicin 1.0 mg/ml i.p., n=4): 2
Survival (animals alive) (72 hrs, n=4): 2

From patent US20060039996A1, “Method for treating sepsis” (priority 2004, published 2006)
